Measurements taken from patent US5484778A, “Phthalocyanine photosensitizers for photodynamic therapy and methods for their use” (priority 1993, dated 1996).

Legend:
[1] = tested on: L5178Y cells; test: Induction of apoptosis (DNA fragmentation) in L5178Y-R cells (Table 6); type: cell-based, mouse; conditions: 1 μM at a fluence of 30 kJ/m^2
Method in brief: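 Exponentially growing mouse lymphoma L5178Y-R cells loaded 18 hours with phthalocyanine at various concentrations, then irradiated with >600 nm red light (up to 30 kJ/m^2, ~74 W/m^2). DNA isolated 2 hours post-PDT, run on 1.5% agarose; value is minimum PDT dose (concentration × fluence) giving visible DNA ladder.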

[2] = tested on: Chinese hamster V79-379 cells; test: Growth delay of V79 cultures after red light (Table 1); type: cell-based; conditions: for Growth Delay, efficiency relative to 1 μM AlPcCl: 18 h, 12 kJ/m^2 red light; for inhibition of V79 culture growth (in words): red light 12 kJ/m^2, three day period
Protocol: (§1) Chinese hamster V79-379 lung fibroblasts were grown in monolayer culture in McCoy's 5A medium (Gibco Laboratories, Grand Island, N.Y.) augmented with 10% calf serum and buffered with 20 mM HEPES (pH 7.4).
(§2) The cells were treated with 1 μM AlPcCl (from Eastman Kodak, Rochester, N.Y.) or with phthalocyanine compositions I-VI (0.5-1.0 μM final concentration in the medium) for 18 hours by adding the appropriate volume of a 1.0 mM stock solution in dimethylformamide (DMF) to the culture medium. The growth medium was replaced with 4 ml Hank's balanced salt solution (HBSS), and the cells were irradiated. The light source was a 500 W tungsten-halogen lamp located approximately 29 inches below the surface of a glass exposure tray. The visible light administered to the cells was filtered to allow passage of only that portion of the visible spectrum above 600 nm (Lee Primary red filter No. 106, Vincent Lighting, Cleveland, Ohio). The fluence rate was approximately 0.074 kJ/m^2 /s at the level of the cell monolayer.
At the time of light exposure, there were approximately 1.5×10^5 cells per 25 cm^2 flask. Following irradiation, the HBSS was replaced by 10 ml of fresh complete growth medium, and the cultures were returned to the 37° C. incubator. At various times before and after irradiation, duplicate cultures were trypsinized and counted. Controls included untreated cells and cells treated with light alone or drug alone. In addition, in each experiment, the drug to be tested was compared to a standard treatment, i.e. 1 μM AlPcCl for 18 hours followed by 12 kJ/m^2 light.
The inhibition of V79 culture growth was measured during a three day period following red light irradiation (12 kJ/m^2) of phthalocyanine-pretreated cells. With each of the active compounds, as well as with AlPcCl, there was an initial decrease in cell density, as dead cells became detached from the monolayer. Thereafter, the cell number per flask increased, as living cells grew and divided. The time for the cell density to recover to the level at the time of light exposure was considered the growth delay. […] The ratio of the growth delay for the test photosensitizer and the growth delay for AlPcCl measured in the same experiment is recorded in Table 1.

[3] = tested on: viruses; conditions: New York Blood Center (Ben-Hur); cited from earlier work
[4] = tested on: RIF-1 tumors; test: PDT of RIF-1 implanted tumors (Table 7); type: in vivo, C3H/HeN mice; conditions: 1 mg/kg in corn oil; 675 nm, 135 J/cm^2
Method in brief: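 C3H/HeN mice each carried one RIF-1 fibrosarcoma on the back and received 1 mg/kg phthalocyanine as a corn-oil suspension. Volume was measured daily by calipers from a 50±10 mm^3 start and calculated with the hemiellipsoid model.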

[5] = tested on: Chinese hamster V79-379 cells; test: Clonogenic cell survival / photocytotoxicity in V79 cells (Table 1, FIG. 1, FIG. 2); type: cell-based
Protocol: FIG. 1 is a graph illustrating the photodynamic efficacy of the various compositions of the present invention in comparison to AlPcCl. The phthalocyanine composition compounds of the present invention were tested for their photodynamic efficiency against Chinese hamster fibroblast V79 cells by colony formation. Monolayer cultures were treated with the indicated phthalocyanine composition for 18 hours, irradiated with various fluences of red light, and immediately trypsinized and replated at appropriate aliquots in triplicate. Colonies of at least 50 cells were counted after 7-10 days. The plating efficiency of the untreated cells was approximately 90%.
In this regard, in FIG. 2 the data of FIG. 1 were replotted as a function of the product of the amount of cell-associated phthalocyanine and the light fluence.
as §1, §2
Cells were irradiated at a density of approximately 2×10^6 per 25 cm^2 flask. Immediately after irradiation, the cell monolayer was treated with trypsin, and appropriate aliquots were plated in triplicate to give 100 to 200 colonies in each 10-cm Petri dish. Cell survival was determined by the ability of the cells to form colonies containing at least 50 cells. The response of cells treated with 1 μM AlPcCl and light was compared in each experiment.
Photocytotoxicity of the phthalocyanines compounds I to VI was also assessed by clonogenic assay (Table 1, FIG. 1). In all experiments, 1 μM AlPcCl was included for comparison purposes. From the survival curves (FIG. 1), the fluence reducing the cell survival to 10% (F10) was obtained. The ratio of the F10 for AlPcCl and the F10 for the test compound is recorded in Table 1.
In order to take differences in cellular uptake into consideration in the assessment of the relative efficiency of these phthalocyanines as photosensitizers of V79 cells, the survival data were replotted against the product of intracellular phthalocyanine concentration and light fluence (FIG. 2). From these curves, the product of intracellular concentration and light fluence reducing survival to 10% (CF10) was obtained, and comparisons of the values for AlPcCl and the test compounds are recorded in Table 1.

[6] = tested on: Chinese hamster fibroblasts, i.e. V79 cells
Excerpt: Initially, applicants examined the photocytotoxicity of twenty-one phthalocyanines taken from a collection in the applicants' laboratories to Chinese hamster fibroblasts, i.e. V79 cells.

SMILES	induction of apoptosis [1]	Growth Delay, efficiency relative to 1 μM AlPcCl [2]	inhibition of V79 culture growth (in words) [2]	purging viruses from blood and/or blood components [3]	Doubling Time of Initial Tumor Volume after PDT [4]	CF10 (AlPcCl)/CF10 (Pc) ([5]; 1.0 μM, 18 h, CF10 = intracellular concentration x fluence reducing survival to 10%)	F10 (AlPcCl)/F10 (Pc) ([5]; 1.0 μM, 18 h, F10 = fluence reducing survival to 10%)	photosensitizing efficiency / photocytotoxicity (in words) [5]	photocytotoxicity (in words) [6]	uptake by V79 cells (in words) [6]
C[N+](C)(C)CCC[Si](C)(C)O[Si]1(O)n2c3c4ccccc4c2N=C2N=C(N=c4c5ccccc5c(n41)=NC1=NC(=N3)c3ccccc31)c1ccccc12.[I-] (centres unmarked) [Compound V, HOSiPcOSi(CH3)2 (CH2)3 N(CH3)3^+ I^-]	did not induce apoptosis	0	less inhibition of culture growth	effective at purging viruses from blood and/or blood components	6 days	3.0	0.59			
C[N+](C)(C)CCC[Si](C)(C)O[Si]1(O[Si](C)(C)CCC[N+](C)(C)C)n2c3c4ccccc4c2N=C2N=C(N=c4c5ccccc5c(n41)=NC1=NC(=N3)c3ccccc31)c1ccccc12.[I-].[I-] [Compound VI, SiPc[OSi(CH3)2 (CH2)3 N(CH3)3)^+ I^- ]2]	did not induce apoptosis	0.05	less inhibition of culture growth	effective at purging viruses from blood and/or blood components				low activity		
CCN(CC)CC(O)COCCC[Si](C)(C)O[Si]1(O)n2c3c4ccccc4c2N=C2N=C(N=c4c5ccccc5c(n41)=NC1=NC(=N3)c3ccccc31)c1ccccc12 (centres unmarked) [HOSiPcOSi(CH3)2 (CH2)3 OCH2 --CHOHCH2 N(C2 H5) 2]									excellent photocytotoxicity	taken up efficiently by the Chinese hamster fibroblast V79 cells
